Measured values as given in patent US20230364074A1, “Compounds and Compositions for Disrupting Programmed Ribosomal Frameshifting” (YALE UNIVERSITY, priority 2020, published 2023).
Counter-ions that a name gives are not always drawn. Like-named read-outs stand apart in the source and are kept apart here.

Key:
SARS-CoV-2 FSE (−1 PRF) = assay: cells; assay type: cell-based
HEK293T cells = assay: Cell viability in the high-throughput screen (cell nuclei numbers)
Experimental: HEK293T cells were plated in 384 well plates at the density of 5,000 cells/well. Cells were treated by 10 μM candidate compounds 30 min before transfection of 15 ng mCherry-FSE-GFP(−1) plasmid DNA in each well. 24 hours after transfection, cell nuclei were stained with Hoechst dye. Cell nuclei, mCherry, and GFP signals were imaged using an automated fluorescent microscope with a 10x objective, and the acquired images were quantified using the CellProfiler image analysis package. Cell nuclei numbers were quantified as the metric for cell viability. Mean GFP and RFP intensity values were measured in all transfected cells, and GFP/mCherry mean intensity ratios were quantified as the metric for PRF efficiency. The mCherry-GFP fusion plasmid and the mCherry-FSE-GFP(0) plasmid were used as positive and negative controls for elevated and reduced GFP/mCherry ratios, respectively.

[1] = Severe acute respiratory syndrome coronavirus 2, HEK-293T, 24 h, read-out: PERCENT EFFECT 2 (Decreased GFP/Red ratio)
[2] = Severe acute respiratory syndrome coronavirus 2, HEK-293T, 24 h, read-out: PERCENT EFFECT (Increased GFP/Red Ratio)
[3] = 10 μM compound, cell nuclei numbers
[4] = Severe acute respiratory syndrome coronavirus 2, HEK-293T, 24 h; read-out: PERCENT EFFECT 2 (Decreased GFP/Red ratio)
[5] = Severe acute respiratory syndrome coronavirus 2, HEK-293T, 24 h; read-out: PERCENT EFFECT (Increased GFP/Red Ratio)

Structure (SMILES) | PERCENT VIABILITY (HEK293T cells; [3]) [%] | inhibition at 10 µM (SARS-CoV-2 FSE (−1 PRF); [4]) [%] | activation at 10 µM (SARS-CoV-2 FSE (−1 PRF); [5]) [%] | further results
Nc1c2ccccc2nc2ccccc12 [AMINACRINE] | 24.0 | – | – | inhibition at 10 µM (SARS-CoV-2 FSE (−1 PRF); [1]): -39.3%; activation at 10 µM (SARS-CoV-2 FSE (−1 PRF); [2]): 20.3%
CCOC(=O)OC(C)OC1=C(C(=O)Nc2ccccn2)N(C)S(=O)(=O)c2ccccc21 (centres unmarked) [AMPIROXICAM] | 284.3 | -57.1 | 30.8 | –
CCN(CC)CCNC(=O)c1cc(Br)c(N)cc1OC [BROMOPRIDE] | 113.8 | 65.7 | -35.5 | –
COc1cccc2c1C(=O)c1c(O)c3c(c(O)c1C2=O)C[C@@](O)(C(C)=O)C[C@@H]3O[C@H]1C[C@H](N)[C@H](O)[C@H](C)O1 [DAUNORUBICIN] | 15.3 | 108 | – | PERCENT VIABILITY (HEK293T cells; 10 μM compound, cell nuclei numbers, listed as daunorubicin): 16.18%
C[C@H]1O[C@@H](n2cc(F)c(=O)[nH]c2=O)[C@H](O)[C@@H]1O [DOXIFLURIDINE] | 382.9 | -31.7 | 17.1 | –
COc1cccc2c1C(=O)c1c(O)c3c(c(O)c1C2=O)C[C@@](O)(C(=O)CO)C[C@@H]3O[C@H]1C[C@H](N)[C@H](O)[C@H](C)O1 [DOXORUBICIN] | 13.3 | 101 | -54.1 | –
COc1cccc2c1C(=O)c1c(O)c3c(c(O)c1C2=O)C[C@@](O)(C(=O)CO)C[C@@H]3O[C@H]1C[C@H](N)[C@H](O)[C@H](C)O1.Cl [Doxorubicin Â•HCl] | 6.15 | – | – | PERCENT EFFECT 2 (Decreased GFP/Red ratio) (SARS-CoV-2 FSE (−1 PRF)): 109.41%; PERCENT EFFECT (Increased GFP/Red Ratio) (SARS-CoV-2 FSE (−1 PRF)): −57.80%
COc1cccc2c1C(=O)c1c(O)c3c(c(O)c1C2=O)C[C@@](O)(C(=O)CO)C[C@@H]3O[C@H]1C[C@H](N)[C@@H](O)[C@H](C)O1 [EPIRUBICIN HYDROCHLORIDE] | 46.3 | 105 | -56.4 | –
O=C1OC2(c3ccccc31)c1cc(I)c(O)c(I)c1Oc1c2cc(I)c(O)c1I [ERYTHROSINE SODIUM] | 100.7 | 105 | -56.3 | –
CCCCC(=O)O[C@H]1CC[C@H]2[C@@H]3CCc4cc(O)ccc4[C@H]3CC[C@]12C [ESTRADIOL VALERATE] | 204.4 | 20.9 | -10.8 | –
Cc1cc(-c2ccc(/N=N/c3ccc4c(S(=O)(=O)O)cc(S(=O)(=O)O)c(N)c4c3O)c(C)c2)ccc1/N=N/c1ccc2c(S(=O)(=O)O)cc(S(=O)(=O)O)c(N)c2c1O [EVANS BLUE] | 159.7 | 31.2 | -13.6 | –
CN(C)c1ccc(C(=C2C=CC(=[N+](C)C)C=C2)c2ccc(N(C)C)cc2)cc1 [GENTIAN VIOLET] | 12.5 | 66.6 | -34.5 | –
CC[n+]1c(-c2ccccc2)c2cc(N)ccc2c2ccc(N)cc21 [HOMIDIUM BROMIDE] | 310.9 | 107 | -58 | –
CCN(CCO)CCCC(C)Nc1ccnc2cc(Cl)ccc12 (centres unmarked) [HYDROXYCHLOROQUINE SULFATE] | 346.2 | -34.5 | 18.9 | –
O=C([O-])c1ccccc1-c1c2cc(Br)c(=O)cc-2oc2[c]([Hg+])c([O-])c(Br)cc12.[Na+].[Na+].[OH-] [MERBROMIN] | 167.4 | – | – | PERCENT EFFECT 2 (Decreased GFP/Red ratio) (SARS-CoV-2 FSE (−1 PRF)): 53.1%; PERCENT EFFECT (Increased GFP/Red Ratio) (SARS-CoV-2 FSE (−1 PRF)): −23.1%
C[C@@H]1O[C@@H](O[C@H]2C[C@@H](O)[C@]3(CO)[C@H]4[C@H](O)C[C@]5(C)[C@@H](C6=CC(=O)OC6)CC[C@]5(O)[C@@H]4CC[C@]3(O)C2)[C@H](O)[C@H](O)[C@H]1O [Ouabain] | 16.4 | -29.7 | 15.7 | –
C[C@@H]1O[C@@H](O[C@@H]2C=C3CC[C@@H]4[C@H](CC[C@]5(C)[C@@H](c6ccc(=O)oc6)CC[C@]45O)[C@@]3(C)CC2)[C@H](O)[C@H](O)[C@H]1O [PROSCILLARIDIN] | 3.4 | -37.8 | 16.5 | –

Structure (SMILES) | PERCENT VIABILITY (HEK293T cells; [3]) [%] | inhibition at 10 µM (SARS-CoV-2 FSE (−1 PRF); [4]) [%] | activation at 10 µM (SARS-CoV-2 FSE (−1 PRF); [5]) [%] | further results
Cc1cc(/C=C/c2ccc3cc(N(C)C)ccc3[n+]2C)c(C)n1-c1ccccc1 [PYRVINIUM PAMOATE] | 15.1 | – | – | –
NCCNc1ccc(NCCN)c2c1C(=O)c1ccncc1C2=O [Pixantrone dimaleate, 6,9-bis[(2-aminoethyl)amino]-5H,10H-benzo[g]isoquinoline-5,10-dione] | 120.8 | -29.9 | 15.8 | –
CCN(CC)CCCC(C)Nc1c2ccc(Cl)cc2nc2ccc(OC)cc12 (centres unmarked) [QUINACRINE HYDROCHLORIDE] | 147.8 | -40.8 | 21.1 | –
Nc1c2c(nc3ccccc13)CCCC2 [TACRINE HYDROCHLORIDE] | – | – | – | inhibition at 10 µM (SARS-CoV-2 FSE (−1 PRF); [1]): 97.1%; activation at 10 µM (SARS-CoV-2 FSE (−1 PRF); [2]): -50.2%; PERCENT VIABILITY (HEK293T cells; human): 148.9%
CC[C@]1(O)C[C@@H]2CN(CCc3c([nH]c4ccccc34)[C@@](C(=O)OC)(c3cc4c(cc3OC)N(C)[C@H]3[C@@](O)(C(N)=O)[C@H](O)[C@]5(CC)C=CCN6CC[C@]43[C@@H]65)C2)C1 [Vindesine Sulfate] | 26.1 | – | 16.8 | PERCENT VIABILITY (HEK293T cells; 10 μM compound, cell nuclei numbers, listed as Vindesine sulfate): 21.3%
CCC1=C[C@@H]2CN(C1)Cc1c([nH]c3ccccc13)[C@@](C(=O)OC)(c1cc3c(cc1OC)N(C)[C@H]1[C@@](O)(C(=O)OC)[C@H](OC(C)=O)[C@]4(CC)C=CCN5CC[C@]31[C@@H]54)C2 [Vinorelbine] | 27.8 | -29.2 | 15.2 | –
Cc1cccc(C)c1N=C1NCCCS1 [XYLAZINE] | 196.8 | -52.5 | 28.9 | –
CC[C@@]1(O)C[C@H](OC2CC(N(C)C)C(OC3CC(O)C(OC4CCC(=O)C(C)O4)C(C)O3)C(C)O2)c2c(cc3c(c2O)C(=O)c2c(O)cccc2C3=O)[C@H]1C(=O)OC (stereo partly drawn) [aclarubicin, methyl (1R,2R,4S)-4-[4-dimethylamino-5-[4-hydroxy-6-methyl-5-(6-methyl-5-oxooxan-2-yl)oxyoxan-2-yl]oxy-6-methyloxan-2-yl]oxy-2-ethyl-2,5,7-trihydroxy-6,11-dioxo-3,4-dihydro-1H-tetracene-1-carboxylate] | 52.5 | 33.3 | – | PERCENT VIABILITY (HEK293T cells; 10 μM compound, cell nuclei numbers, listed as Aclarubicin): 54.77%
CC(=O)[C@]1(N)Cc2c(O)c3c(c(O)c2[C@@H](O[C@H]2C[C@H](O)[C@H](O)CO2)C1)C(=O)c1ccccc1C3=O.Cl [amrubicin, (7S,9S)-9-acetyl-9-amino-7-[(2S,4S,5R)-4,5-dihydroxyoxan-2-yl]oxy-6,11-dihydroxy-8,10-dihydro-7H-tetracene-5,12-dione hydrochloride] | – | – | – | inhibition at 10 µM (SARS-CoV-2 FSE (−1 PRF); [1]): 50.5%; activation at 10 µM (SARS-CoV-2 FSE (−1 PRF); [2]): -23.7%; PERCENT VIABILITY (HEK293T cells; human): 111.0%
CCCC1(CCC)CCC2(CCN(CCCN(CC)CC)C2)CC1 [atiprimod, 3-(8,8-dipropyl-3-azaspiro[4.5]decan-3-yl)-N,N-diethylpropan-1-amine] | 7.2 | -40.9 | 21.2 | –
O=P(O)(O)OC1[C@H](OP(=O)(O)O)[C@H](O)C(O)[C@H](O)[C@H]1OP(=O)(O)O (stereo partly drawn) [atrinositol, [(2R,3S,5R,6R)-3,4,5-trihydroxy-2,6-diphosphonooxycyclohexyl] dihydrogen phosphate] | – | -61.7 | 30.2 | PERCENT VIABILITY (HEK293T cells; human): 199.8%
Cc1cc(C)c(Nc2ccnc(Nc3ccc(C#N)cc3)n2)c(C)c1 [dapivirine, 4-[[4-[(2,4,6-trimethylphenyl)amino]pyrimidin-2-yl]amino]benzonitrile] | 36.7 | -51.1 | 24 | –
C[C@H]1O[C@@H](O[C@H]2[C@@H](O)C[C@H](O[C@H]3[C@@H](O)C[C@H](O[C@H]4CC[C@@]5(C)[C@H](CC[C@@H]6[C@@H]5CC[C@]5(C)[C@@H](C7=CC(=O)OC7)CC[C@]65O)C4)O[C@@H]3C)O[C@@H]2C)C[C@H](O)[C@@H]1O [digitoxin] | 6.9 | -34.2 | 16.8 | –
CCN1/C(=C/C=C/C=C/c2sc3ccccc3[n+]2CC)Sc2ccccc21.[I-] [dithiazanine, 3-ethyl-2-[(1Z,3E,5E)-5-(3-ethyl-1,3-benzothiazol-2-ylidene)penta-1,3-dienyl]-1,3-benzothiazol-3-ium iodide] | 48.28 | 79.7 | -39 | –
CCOC(=O)Nc1ccc(NCc2ccc(F)cc2)nc1N [flupirtine, ethyl N-(2-amino-6-{[(4-fluorophenyl)methyl]amino}pyridin-3-yl)carbamate] | 110.5 | -27.2 | 14.4 | –
COc1cccc2c1C(=O)c1c(O)c3c(c(O)c1C2=O)C[C@@](O)(C(C)=NNC(=O)c1ccccc1)C[C@@H]3O[C@H]1C[C@H](N)[C@H](O)[C@H](C)O1.Cl [zorubicin, N-[1-[(2S,4S)-4-[(2R,4S,5S,6S)-4-amino-5-hydroxy-6-methyloxan-2-yl]oxy-2,5,12-trihydroxy-7-methoxy-6,11-dioxo-3,4-dihydro-1H-tetracen-2-yl]ethylideneamino]benzamide hydrochloride] | – | – | – | inhibition at 10 µM (SARS-CoV-2 FSE (−1 PRF); [1]): 106%
